The test system of data set [1] is insulin-like growth factor-1 (IGF-1). The data set is described as follows: Phase 1 SAD pharmacodynamics, serum IGF-1 (ELISA). Type of data set: in vivo, human. The note with it: 0.1-10 mg. The procedure: (§1) Blood samples for determination of growth hormone (GH), insulin-like growth factor-1 (IGF-1), adrenocorticotropic hormone (ACTH), prolactin, cortisol and aldosterone in serum at pre-dose and 0.5, 1, 2, 3, 4, 6 and 24 hours post-dose were collected by venous puncture. All biomarkers were determined using enzyme linked immunosorbent assays (ELISA). Simplified nutritional appetite questionnaire based on appetite assessments at Day −1 after dinner, and on Day 1 pre-dose, 1, 2, 4, 8, and 24 hours after dosing. Stool diary starting on Day 1 until discharge on Day 4.

The nature of data set [2]: Phase 1 SAD, safety and tolerability. Type of data set: in vivo, human. The procedure: Single-center, randomized, double-blind, placebo-controlled, single ascending dose (SAD) study. Screening examinations were performed within 28 days prior to dosing. Eligible subjects returned to the study center in the morning of Day-1 and remained in-patient until discharge at 72 hours after dosing (morning of Day 4) if there were no safety issues. The oral dose was administered in the morning of Day 1. Subjects returned to the clinic 7 days after treatment, in the morning of Day 8 (±1 day), for the safety assessments. Adverse events (AEs), vital signs (blood pressure, pulse rate and body temperature), 12-lead ECG, Holter-ECG, physical examination (PE), and laboratory tests (hematology, clinical chemistry, and urinalysis) assessed during screening and several times throughout the study.

The next data set concerns cortisol. The data set is described as follows: Phase 1 SAD pharmacodynamics, serum cortisol (ELISA). Type of data set: in vivo, human. The procedure: as §1
Another data set has as its system aldosterone. The data set can be described thus: Phase 1 SAD pharmacodynamics, serum aldosterone (ELISA). Type of data set: in vivo, human. Here is the method: as §1
(In an ELISA, binding on a coated surface is turned into a signal by an enzyme label.)

In data set [3] the test system is phospho (Ser 22-23) cardiac troponin I (cTnl). The data set can be described thus: Phospho (Ser 22-23) cTnl western blot in cardiomyocytes. Type of data set: cell-based, mouse. The note with it: SHAM cardiomyocytes; 1 μM; western blot normalized to total cTnl. The procedure: (§2) AC01/HM01 was suspended in phosphate buffer saline solution (PBS: in mM: NaCl 137, KCl 7, Na2HPO4 10, KH2PO4 […]) and diluted to obtain 3 different concentrations: 0.2, 0.5 or 1 μM in Tyrode solution. We used a concentration range within 0.2-1 μM to ensure that the receptor was activated. […] Prior to contractility and Ca^2+ signaling measurements and biochemical assays, cardiomyocyte suspensions from SHAM and HF hearts were randomized to 3 types of treatments: vehicle, AC01/HM01, or D-Lys3-GHPR-6+AC01/HM01. The treatment with different agents occurred for 15 minutes at room temperature. Some cell suspension aliquots were flash frozen in liquid N2 and stored at −80° C. for later biochemistry analyses. All the experiments were conducted blinded regarding the treatment of cardiomyocytes.
Aliquots of frozen cardiomyocyte suspensions were lysed using NP40 buffer (Thermo Fisher FNN0021, Stockholm, Sweden) supplemented with phosphatase inhibitors (Sigma-Aldrich P2850-1ML, P5726-1ML, Stockholm, Sweden). Protein lysates were separated by electrophoresis and transferred onto membranes. Membranes were incubated with primary antibody: rabbit anti phospho (Ser 22-23) cardiac troponin I (cTnl, Cell Signalling, Leiden, The Netherlands #4004S) and rabbit anti-cTnl (Cell Signalling #4002S, Leiden, The Netherlands). Thereafter, infrared-labelled secondary antibodies (IRDye 680 and IRDye 800, 1:5000, Licor) were used. Immunoreactive bands were analyzed using the Odyssey Infrared Imaging System (Li-Cor, Bad Homburg, Germany). Band densities were quantified with Image J (NIH, Bethesda, USA), normalized to total cTnl and final data was expressed as fold increase compared to bands representing protein extracted from vehicle treated cells.
In general terms: In western blotting, separated proteins are transferred to a membrane and probed.

For the next data set, the system named is Protein kinase A (PKA). The data set can be described thus: PKA activity assay in cardiomyocytes (ELISA-based kit). Type of data set: cell-based, mouse. The note with it: isolated cardiomyocytes; 1 μM. The procedure:
as §2
Elisa-based PKA kinase activity assay kit (ab139435, Abcam, Cambridge, UK) was employed to determine PKA activity in cardiomyocytes. Aliquots of frozen cardiomyocytes were thawed and mixed with a lysis buffer containing (mM) the following: 20 MOPS, 50 β-glycerolphosphate, 5 EGTA, 2 EDTA, 1 benzamidine, 1 sodium orthovanadate, 1% NP40, 1 DTT, complete protease inhibitor cocktail (Roche Diagnostics, West Sussex, UK) and phosphatase inhibitor cocktail 3 (Sigma, Gillingham, UK). Approximately 2 μg of protein of each sample were assayed according to the manufacturer's instructions 27.

For data set [4], the system named is adrenocorticotropic hormone (ACTH). The data set is described as follows: Phase 1 SAD pharmacodynamics, serum ACTH (ELISA). Type of data set: in vivo, human. Particulars: higher doses; ACTH determined only after 1.0 mg. The procedure:
as §1

Entries after “also recorded” stand apart in the source; their conditions may differ.

As for `COc1ccc([C@H](C)NC(=O)N(C)[C@@H]2CCN(C)CC2(C)C)c(Cl)c1Cl.Cl` [AC01/HM01, 1-[(1S)-1-(2,3-dichloro-4-methoxyphenyl)ethyl]-3-methyl-3-[(4R)-1-methyl-3,3-dimethyl-4-piperidyl]-urea], the “IGF-1 serum levels, dose groups vs placebo” value in data set [1] was “No relevant differences”. For the same compound, the TEAEs reported result in data set [2] (0.1 mg) was “no TEAEs”. Also, the “number of TEAEs” value in data set [2] (0.3 mg) was 5 TEAEs; in data set [2] (1.0 mg), 7 TEAEs; in data set [2] (10 mg), 19 TEAEs. The “subjects reporting TEAEs of moderate intensity” value in data set [2] (1.0 mg, hot flush) was determined as 1 subject; in data set [2] (10 mg, sinus bradycardia) it was 1 subject. Further, the “number of subjects reporting TEAEs and number of TEAEs, dose dependence” value in data set [2] (0.1-10 mg single oral dose) is “increased dose-dependently”. Moreover, the “mean systolic and diastolic blood pressure and body temperature” value in data set [2] (after dosing / between treatment groups) is reported as “no clinically relevant changes”. The “intensity of TEAEs” value in data set [2] (all dose groups) is on record as “Most TEAEs were of mild intensity”. Further, the “laboratory parameters, differences between dosing groups” value in data set [2] (in vivo) is given as “no clinically relevant differences”. The “most frequently reported TEAEs” value in data set [2] (started mainly shortly after dosing, short duration) is “nervous system disorder (mainly headache) and cardiac disorders (mainly sinus bradycardia)”. Also, the concentrations of cortisol result in the data set with cortisol (1.0 and 10 mg HM01) was “rapidly increased above baseline values”. The “cortisol increase, comparison of doses” value in the data set with cortisol (1.0 vs 10 mg) is reported as “similar”. Further, the concentrations of aldosterone result in the data set on aldosterone (1.0 and 10 mg HM01) is listed as “rapidly increased above baseline values”. Also, in the data set on aldosterone (1.0 vs 10 mg), the “aldosterone increase, comparison of doses” value is on record as “similar”. Further, the “phosphorylation of cTnl (Serine 22-23) vs vehicle” value in data set [3] is given as “decreased phosphorylation levels; also recorded: reduced the levels of phosphorylation”. Moreover, the “PKA activity vs vehicle” value in the data set with Protein kinase A (PKA) is “decreased; also recorded: reduction of PKA activity”. In data set [4], the “concentrations of ACTH” value is “rapidly increased above baseline values”.

These data come from patent US12648941B2, “Piperidine urea derivatives for use as inotropic agents” (Helsinn Healthcare SA, priority 2021, dated 2026).
